Measurements from PubChem BioAssay AID248 (DTP/NCI, 2004).
Where “and” joins values, the source holds several entries; their conditions need not be identical. Identical values can stand only once. Toxic doses and inconclusive results are not listed. Rule as the data show it: active = T/C of 150% or more; inactive = T/C below 125%.

Tested on: L1210 leukemia ip in BDF1 mice, survival T/C
Test: NCI In Vivo Anticancer Drug Screen. Data for tumor model L1210 Leukemia (intraperitoneal) in B6D2F1 (BDF1) mice
Conditions: endpoint: mean survival time, higher = longer survival
Outline: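 Tumor cells were implanted, animals were treated, and survival was followed. The result divides the treated measurement by the vehicle-control measurement.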

[1] = dose: 100.0 mg/kg/injection, schedule: Q04DX003 (ip), vehicle: acetone
[2] = dose: 200.0 mg/kg/injection, schedule: Q04DX003 (ip), vehicle: acetone
[3] = dose: 100.0 mg/kg/injection, schedule: Q01DX001 (ip), vehicle: Klucel (hydroxypropylcellulose) (HPC)
[4] = dose: 200.0 mg/kg/injection, schedule: Q01DX001 (ip), vehicle: Klucel (hydroxypropylcellulose) (HPC)
[5] = dose: 100.0 mg/kg/injection, schedule: Q01DX001 (ip), vehicle: saline
[6] = dose: 200.0 mg/kg/injection, schedule: Q01DX001 (ip), vehicle: saline
[7] = dose: 100.0 mg/kg/injection, schedule: Q04DX002 (ip), vehicle: Klucel (hydroxypropylcellulose) (HPC)
[8] = dose: 200.0 mg/kg/injection, schedule: Q04DX002 (ip), vehicle: Klucel (hydroxypropylcellulose) (HPC)
[9] = dose: 75.0 mg/kg/injection, schedule: Q01DX001 (ip), vehicle: saline
[10] = dose: 150.0 mg/kg/injection, schedule: Q01DX001 (ip), vehicle: saline
[11] = dose: 300.0 mg/kg/injection, schedule: Q01DX001 (ip), vehicle: saline
[12] = dose: 400.0 mg/kg/injection, schedule: Q01DX001 (ip), vehicle: saline
[13] = dose: 100.0 mg/kg/injection, schedule: Q01DX009 (ip), vehicle: Klucel (hydroxypropylcellulose) (HPC)
[14] = dose: 200.0 mg/kg/injection, schedule: Q01DX009 (ip), vehicle: Klucel (hydroxypropylcellulose) (HPC)
[15] = dose: 400.0 mg/kg/injection, schedule: Q01DX009 (ip), vehicle: Klucel (hydroxypropylcellulose) (HPC)
[16] = dose: 100.0 mg/kg/injection, schedule: Q01DX009 (ip), vehicle: saline with Tween-80
[17] = dose: 200.0 mg/kg/injection, schedule: Q01DX009 (ip), vehicle: saline with Tween-80
[18] = dose: 400.0 mg/kg/injection, schedule: Q01DX009 (ip), vehicle: saline with Tween-80

Measured: T/C

O=C(O)c1nnn(Cc2ccccc2)n1
inactive: [1] 94 % of control | [2] 96 % of control | dose: 400.0 mg/kg/injection, schedule: Q04DX003 (ip), vehicle: acetone 96 % of control

CS(=O)(=O)c1cc(N2CC2)ncn1
inactive: dose: 4.0 mg/kg/injection, schedule: Q01DX015 (ip), vehicle: carboxymethylcellulose (CMC) 96 % of control | dose: 8.0 mg/kg/injection, schedule: Q01DX015 (ip), vehicle: carboxymethylcellulose (CMC) 102 % of control | dose: 16.0 mg/kg/injection, schedule: Q01DX015 (ip), vehicle: carboxymethylcellulose (CMC) 108 % of control | dose: 32.0 mg/kg/injection, schedule: Q01DX015 (ip), vehicle: carboxymethylcellulose (CMC) 113 % of control and 120 % of control | dose: 64.0 mg/kg/injection, schedule: Q01DX015 (ip), vehicle: carboxymethylcellulose (CMC) 110 % of control

COc1n[nH]c(N)n1
inactive: dose: 100.0 mg/kg/injection, schedule: Q04DX002 (ip), vehicle: saline with Tween-80 122 % of control | dose: 200.0 mg/kg/injection, schedule: Q04DX002 (ip), vehicle: saline with Tween-80 98 % of control | dose: 400.0 mg/kg/injection, schedule: Q04DX002 (ip), vehicle: saline with Tween-80 105 % of control

Cc1ccc(NC(=O)CCc2ccc(N3C(N)=NC(N)=NC3(C)C)cc2)cc1S(=O)(=O)F
inactive: [3] 90 % of control | [4] 108 % of control

Cc1cc(S(=O)(=O)c2ccccc2)c(C)s1
inactive: dose: 50.0 mg/kg/injection, schedule: Q01DX009 (ip), vehicle: saline 91 % of control | dose: 50.0 mg/kg/injection, schedule: Q04DX003 (ip), vehicle: acetone 96 % of control | [5] 98 % of control | dose: 100.0 mg/kg/injection, schedule: Q01DX009 (ip), vehicle: saline 89 % of control | [1] 96 % of control | [6] 101 % of control | dose: 200.0 mg/kg/injection, schedule: Q01DX009 (ip), vehicle: saline 94 % of control | [2] 94 % of control

Cc1cccc(CN=C(N)CCl)n1
inactive: [7] 98 % of control | [8] 95 % of control

CC1C(=O)C(Br)C2CC(O)CCC2(C)C1C (centres undefined)
inactive: [9] 100 % of control | [10] 94 % of control | [11] 89 % of control

COc1ccc(-c2ccccc2)cc1SCCC(=O)O
inactive: dose: 50.0 mg/kg/injection, schedule: Q01DX001 (ip), vehicle: carboxymethylcellulose (CMC) 114 % of control | dose: 100.0 mg/kg/injection, schedule: Q01DX001 (ip), vehicle: carboxymethylcellulose (CMC) 101 % of control | dose: 200.0 mg/kg/injection, schedule: Q01DX001 (ip), vehicle: carboxymethylcellulose (CMC) 97 % of control | dose: 400.0 mg/kg/injection, schedule: Q01DX001 (ip), vehicle: carboxymethylcellulose (CMC) 95 % of control

CN(C)c1ccc2nc(C(=O)O)c(=O)n(C)c2c1
inactive: [3] 101 % of control | [4] 97 % of control

O=C(Nc1ccc(S(=O)(=O)NC2CCCCC2)cc1)Oc1ccccc1C(=O)O
inactive: [5] 100 % of control | [6] 91 % of control | [12] 100 % of control

Cc1ccc([N+](=O)[O-])cc1NC(=O)NCCc1ccccc1
inactive: [13] 97 % of control | [14] 87 % of control | [15] 92 % of control

O=S(=O)(Nc1ccc2ccccc2c1)c1ccc2ccccc2c1
inactive: dose: 100.0 mg/kg/injection, schedule: Q04DX003 (ip), vehicle: Klucel (hydroxypropylcellulose) (HPC) 91 % of control | dose: 200.0 mg/kg/injection, schedule: Q04DX003 (ip), vehicle: Klucel (hydroxypropylcellulose) (HPC) 90 % of control | dose: 400.0 mg/kg/injection, schedule: Q04DX003 (ip), vehicle: Klucel (hydroxypropylcellulose) (HPC) 91 % of control

CCC[CH2][Pb]([CH2]CCC)([CH2]CCC)[O]C(=O)CCl
inactive: dose: 1.56 mg/kg/injection, schedule: Q01DX009 (ip), vehicle: Klucel (hydroxypropylcellulose) (HPC) 98 % of control | dose: 3.13 mg/kg/injection, schedule: Q01DX009 (ip), vehicle: Klucel (hydroxypropylcellulose) (HPC) 104 % of control | dose: 6.25 mg/kg/injection, schedule: Q01DX009 (ip), vehicle: Klucel (hydroxypropylcellulose) (HPC) 94 % of control and 98 % of control | dose: 12.5 mg/kg/injection, schedule: Q04DX003 (ip), vehicle: Klucel (hydroxypropylcellulose) (HPC) 101 % of control | dose: 25.0 mg/kg/injection, schedule: Q04DX003 (ip), vehicle: Klucel (hydroxypropylcellulose) (HPC) 100 % of control

CCCCCCCCCCCCCCCCCCNC(=O)Nc1ccc([N+](=O)[O-])cc1Br
inactive: [7] 97 % of control | [8] 97 % of control | dose: 400.0 mg/kg/injection, schedule: Q04DX002 (ip), vehicle: Klucel (hydroxypropylcellulose) (HPC) 90 % of control

CCn1c(N)c(N=O)c(=O)[nH]c1=O
inactive: dose: 100.0 mg/kg/injection, schedule: Q01DX009 (ip), vehicle: gum acacia 95 % of control | dose: 200.0 mg/kg/injection, schedule: Q01DX009 (ip), vehicle: gum acacia 99 % of control

CN(C)c1ccc(/C=C/c2ccc3ccccc3n2)cc1
inactive: [3] 100 % of control | [13] 103 % of control | [4] 97 % of control | [14] 100 % of control | dose: 400.0 mg/kg/injection, schedule: Q01DX001 (ip), vehicle: Klucel (hydroxypropylcellulose) (HPC) 101 % of control | [15] 95 % of control

CCOC(=O)c1cc(=O)ss1
inactive: dose: 50.0 mg/kg/injection, schedule: Q01DX009 (ip), vehicle: saline with Tween-80 100 % of control | [16] 101 % of control | dose: 100.0 mg/kg/injection, schedule: Q04DX003 (ip), vehicle: saline with Tween-80 96 % of control | [17] 92 % of control | dose: 200.0 mg/kg/injection, schedule: Q04DX003 (ip), vehicle: saline with Tween-80 97 % of control | [18] 94 % of control | dose: 400.0 mg/kg/injection, schedule: Q04DX003 (ip), vehicle: saline with Tween-80 106 % of control

CC(C)(CC(=O)c1ccccc1)CC(=O)c1ccccc1
inactive: [5] 109 % of control | [6] 116 % of control | [12] 98 % of control

CC(C(O)c1cc(=O)n(C)c2ccccc12)[N+](=O)[O-] (centres undefined)
inactive: dose: 100.0 mg/kg/injection, schedule: Q01DX001 (ip), vehicle: other 95 % of control | dose: 200.0 mg/kg/injection, schedule: Q01DX001 (ip), vehicle: other 110 % of control | dose: 400.0 mg/kg/injection, schedule: Q01DX001 (ip), vehicle: other 101 % of control

OC1C2c3ccccc3C(c3ccccc32)C1O (centres undefined)
inactive: [9] 107 % of control | [10] 93 % of control | [11] 99 % of control

CC(Cc1ccccc1)NC1=NCCO1 (centres undefined)
inactive: [16] 91 % of control | [17] 91 % of control | [18] 89 % of control

CCOC(C#Cc1ccccc1)OCC
inactive: dose: 100.0 mg/kg/injection, schedule: Q04DX003 (ip), vehicle: saline 105 % of control | dose: 200.0 mg/kg/injection, schedule: Q04DX003 (ip), vehicle: saline 114 % of control | dose: 400.0 mg/kg/injection, schedule: Q04DX003 (ip), vehicle: saline 95 % of control
